# In US20070021360A1, “Compositions, formulations and kit with anti-sense oligonucleotide and anti-inflammatory steroid and/or obiquinone for treatment of respiratory and lung disesase” (priority 2001, published 2007):
# Assays:
# [1] = system: adenosine A1 receptor; test: Adenosine-induced bronchoconstriction (PC50 Adenosine) in allergic rabbits; type: in vivo
# Method: A fortuitous hoology between the rabbit and human DNA sequences within the adenosine A1 gene overlapping the initiation codon permitted the use of the phosphorothioate anti-sense oligonucleotides initially designed for use against the human adenosine A1 receptor in a rabbit model. Neonatal New Zealand white Pasteurella-free rabbits were immunized intraperitoneally within 24 hours of birth with 312 antigen units/ml house dust mite (D. farinae) extract (Berkeley Biologicals, Berkeley, Calif.), mixed with 10% kaolin. Immunizations were repeated weekly for the first month and then biweekly for the next 2 months. At 3-4 months of age, eight sensitized rabbits were anesthetized and relaxed with a mixture of ketamine hydrochloride (44 mg/kg) and acepromazine maleate (0.4 mg/kg) administered intramuscularly. The rabbits were then laid supine in a comfortable position on a small molded, padded animal board and intubated with a 4.0-mm intratracheal tube (Mallinkrodt, Inc., Glens Falls, N.Y.). A polyethylene catheter of external diameter 2.4 mm with an attached latex balloon was passed into the esophagus and maintained at the same distance (approximately 16 cm) from the mouth throughout the experiments. The intratracheal tube was attached to a heated Fleisch pneumotachograph (size 00; DOM Medical, Richmond, Va.), and flow was measured using a Validyne differential pressure transducer (Model DP-45161927; Validyne Engineering Corp., Northridge, Calif.) driven by a Gould carrier amplifier (Model 11-4113; Gould Electronic, Cleveland, Ohio). The esophageal balloon was attached to one side of the differential pressure transducer, and the outflow of the intratracheal tube was connected to the opposite side of the pressure transducer to allow recording of transpulmonary pressure. Flow was integrated to give a continuous tidal volume, and measurements of total lung resistance (RL) and dynamic compliance (Cdyn) were calculated at isovolumetric and flow zero points, respectively, using an automated respiratory analyzer (Model 6; Buxco, Sharon, Conn.). Animals were randomized and on Day 1 pretreatment values for PC50 were obtained for aerosolized adenosine. Anti-sense (HAdA1AS) or mismatched control (HAdA1MM) oligonucleotides were dissolved in sterile physiological saline at a concentration of 5000 μg (5 mg) per 1.0 ml. […] Aerosols of either saline, adenosine, or anti-sense or mismatch oligonucleotides were generated by an ultrasonic nebulizer (DeVilbiss, Somerset, Pa.), producing aerosol droplets 80% of which were smaller than 5:m in diameter. In the first arm of the experiment, four randomly selected allergic rabbits were administered anti-sense oligonucleotide and four the mismatched control oligonucleotide. On the morning of the third day, PC50 values (the concentration of aerosolized adenosine in mg/ml required to reduce the dynamic compliance of the bronchial airway 50% from the baseline value) were obtained and compared to PC50 values obtained for these animals prior to exposure to oligonucleotide. Following a 1 week interval, animals were crossed over, with those previously administered mismatch control oligonucleotide now administered anti-sense oligonucleotide, and those previously treated with anti-sense oligonucleotide now administered mismatch control oligonucleotide. Treatment methods and measurements were identical to those employed in the first arm of the experiment. […] For the purpose of calculation, PC50 values for these animals were set at 20 mg/ml. The values given therefore represent a minimum figure for anti-sense effectiveness. Actual effectiveness was higher.
# Aerosols of either adenosine (0-20 mglnml), or anti-sense or one of two mismatch oligonucleotides (5 mg/ml) were separately prepared with an ultrasonic nebulizer (Model 646, DeVilbiss, Somerset, Pa.), which produced aerosol droplets, 80% of which were smaller than 5:m in diameter. […]
# [2] = target: T1, B2 bradykinin receptor (Oryctolagus cuniculus, UniProt Q28642); test: Bradykinin B2 receptor binding ([3H]NPC 17731) in airway smooth muscle membranes of treated rabbits; set-up: species or system rabbit; conditions: for B2 receptor Bmax: [3H]NPC 17731
# T1 construct: Tissue from airway smooth muscle was dissected to primary, secondary and tertiary bronchi from rabbits; from tissue; host or cells: rabbit airway smooth muscle membranes
# T1 sequence (Q28642 1-367): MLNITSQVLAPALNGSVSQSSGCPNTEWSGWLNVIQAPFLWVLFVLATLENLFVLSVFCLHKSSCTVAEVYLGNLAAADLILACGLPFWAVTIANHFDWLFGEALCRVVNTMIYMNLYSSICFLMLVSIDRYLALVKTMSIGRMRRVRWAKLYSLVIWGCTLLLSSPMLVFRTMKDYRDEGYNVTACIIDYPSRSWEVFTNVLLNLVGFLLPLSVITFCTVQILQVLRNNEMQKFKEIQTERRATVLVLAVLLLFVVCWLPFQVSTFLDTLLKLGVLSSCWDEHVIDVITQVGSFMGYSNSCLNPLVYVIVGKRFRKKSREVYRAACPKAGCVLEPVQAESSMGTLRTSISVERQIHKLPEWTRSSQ
# Method: A membrane fraction was prepared according to the method of Ali et al. (Ali, S., et al., Am. J. Resp. Crit Care Med. 149: 908 (1994), the relevant section relating to the preparation of the membrane fraction is incorporated in its entirety hereby by reference). The protein content was determined by the method of Bradford and plasma membranes were incubated with 0.2 U/ml adenosine deaminase for 30 minutes at 37 EC to remove endogenous adenosine. See, Bradford, M. M. Anal. Biochem. 72, 240-254 (1976), the relevant portion of which is hereby incorporated in its entirety by reference. The binding of [^3H]DPCPX, [^3H]NPC17731, or [^3H]CGS-21680 was measured as described by Jarvis et al. See, Jarvis, M. F., et al., Pharmacol. Exptl. Ther. 251, 888-893 (1989), the relevant portion of which is fully incorporated herein by reference.
substance,measurement,setting,value
"5′-GTAGCAGGCGGGGATGGGGGC-3′ [HAdA1MM1, reference compound]",effect on PC50 Adenosine value,"[1]; allergic rabbits, cross-over experiment, 20 mg total aerosolized oligo",No effect
same,PC50 Post Oligonucleotide,"[1]; asthmatic rabbits, approx. 5 mg aerosolized oligo twice daily for two days, third day, non-responders set at 20 mg/ml, mean (n = 8) ± SEM",5.16 ± 1.03 mg/mL
same,PC50 Pre Oligonucleotide,"[1]; asthmatic rabbits, baseline before oligonucleotide, aerosolized adenosine reducing dynamic compliance 50%, mean (n = 8) ± SEM",3.56 ± 1.02 mg/mL
same,toxicity,[1]; rabbits receiving inhaled oligonucleotide,No toxicity was observed
same,Kd,[2]; Kd of [3H]NPC 17731 in membranes of rabbits treated with 2 mg oligo,0.38 ± 0.028 nM
same,Kd,[2]; Kd of [3H]NPC 17731 in membranes of rabbits treated with 20 mg oligo,0.35 ± 0.024 nM
same,B2 receptor Bmax,[2]; rabbits treated with 2 mg oligo,14.6 ± 1.02 fmol
same,B2 receptor Bmax,[2]; rabbits treated with 20 mg oligo,14.0 ± 1.0 fmol
